# Molecular target: T1, JAK3 (Homo sapiens, UniProt P52333)
# T1 construct: endogenous in cells
# T1 sequence (P52333 1-1124): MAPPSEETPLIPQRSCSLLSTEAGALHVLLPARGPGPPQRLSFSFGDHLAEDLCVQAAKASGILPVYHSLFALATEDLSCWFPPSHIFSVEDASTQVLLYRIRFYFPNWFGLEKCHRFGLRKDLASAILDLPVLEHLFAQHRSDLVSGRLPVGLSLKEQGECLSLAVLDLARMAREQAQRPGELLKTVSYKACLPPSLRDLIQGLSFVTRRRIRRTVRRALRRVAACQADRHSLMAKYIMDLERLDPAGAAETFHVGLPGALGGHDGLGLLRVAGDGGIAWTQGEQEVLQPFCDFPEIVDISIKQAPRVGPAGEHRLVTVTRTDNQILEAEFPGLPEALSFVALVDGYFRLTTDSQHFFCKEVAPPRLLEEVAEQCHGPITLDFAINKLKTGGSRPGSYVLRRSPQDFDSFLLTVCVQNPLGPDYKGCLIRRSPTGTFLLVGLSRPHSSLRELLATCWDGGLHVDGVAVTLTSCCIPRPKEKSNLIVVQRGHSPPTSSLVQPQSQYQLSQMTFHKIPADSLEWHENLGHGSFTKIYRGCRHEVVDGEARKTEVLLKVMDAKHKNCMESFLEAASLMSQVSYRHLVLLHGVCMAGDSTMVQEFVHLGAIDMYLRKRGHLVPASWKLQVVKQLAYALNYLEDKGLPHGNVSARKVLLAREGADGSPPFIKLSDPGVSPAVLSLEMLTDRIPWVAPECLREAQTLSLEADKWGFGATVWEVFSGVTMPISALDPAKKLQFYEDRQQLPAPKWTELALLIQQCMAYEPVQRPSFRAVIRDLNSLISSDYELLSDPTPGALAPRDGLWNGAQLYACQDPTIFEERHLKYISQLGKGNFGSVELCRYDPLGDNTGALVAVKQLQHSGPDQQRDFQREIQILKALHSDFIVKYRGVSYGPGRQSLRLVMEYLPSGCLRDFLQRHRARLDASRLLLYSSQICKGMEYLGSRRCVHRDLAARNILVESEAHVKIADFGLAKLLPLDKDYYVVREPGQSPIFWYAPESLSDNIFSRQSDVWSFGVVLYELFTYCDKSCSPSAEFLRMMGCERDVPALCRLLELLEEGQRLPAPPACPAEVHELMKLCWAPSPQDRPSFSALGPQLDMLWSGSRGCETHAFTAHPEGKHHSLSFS
# Test: JAK3 kinobeads assay
# Assay type: binding
# Conditions: cell lysate, dot blot with JAK3 specific antibody
# Procedure: The compounds of the present invention as described in the previous examples were tested in the ZAP-70 kinobeads assay as described (EP-A 1862802 and WO-A 2007/137867). Briefly, test compounds (at various concentrations) and the affinity matrix with the immobilized aminopyrido-pyrimidine ligand 24 are added to cell lysate aliquots and allowed to bind to the proteins in the lysate sample. After the incubation time the beads with captured proteins are separated from the lysate. Bound proteins are then eluted and the presence ZAP-70 is detected and quantified using a specific antibody in a dot blot procedure and the Odyssey infrared detection system.
# Compounds were tested by the procedure described in Example 102 but using a JAK3 specific antibody (Cell Signaling Technology, Inc., Danvers, US, catalogue number 3775) instead of a ZAP70 antibody.
row,SMILES,IC50
1,"CCCn1ccc(Nc2ncc(Cl)c(Nc3ccccc3NS(C)(=O)=O)n2)n1 [Example 46, N-(2-((5-chloro-2-((1-propyl-1H-pyrazol-3-yl)amino)pyrimidin-4-yl)amino)phenyl)methanesulfonamide]",≤ 100 nM
2,"Cn1cc(Nc2ncc(Cl)c(Nc3ccccc3NS(=O)(=O)C3CC3)n2)cn1 [Example 58, N-(2-((5-chloro-2-((1-methyl-1H-pyrazol-4-yl)amino)pyrimidin-4-yl)amino)phenyl)cyclopropanesulfonamide]",≤ 100 nM
3,"Cn1nc(Nc2ncc(Cl)c(Nc3ccccc3NS(C)(=O)=O)n2)cc1C(=O)O [Example 92, 3-((5-chloro-4-((2-(methylsulfonamido)phenyl)amino)pyrimidin-2-yl)amino)-1-methyl-1H-pyrazole-5-carboxylic acid]",≤ 100 nM
4,"COc1nn(CC(F)F)cc1Nc1ncc(Cl)c(Nc2ccccc2NS(C)(=O)=O)n1 [Example 80, N-(2-((5-chloro-2-((1-(2,2-difluoroethyl)-3-methoxy-1H-pyrazol-4-yl)amino)pyrimidin-4-yl)amino)phenyl)methanesulfonamide]",≤ 100 nM
5,"CS(=O)(=O)Nc1ccccc1Nc1nc(Nc2cnn(CC(F)F)c2)ncc1F [Example 85, N-(2-((2-((1-(2,2-difluoroethyl)-1H-pyrazol-4-yl)amino)-5-fluoropyrimidin-4-yl)amino)phenyl)methanesulfonamide]",≤ 100 nM
6,"Cn1ccc(Nc2ncc(Cl)c(Nc3cccc(F)c3NS(C)(=O)=O)n2)n1 [Example 70, N-(2-((5-chloro-2-((1-methyl-1H-pyrazol-3-yl)amino)pyrimidin-4-yl)amino)-6-fluorophenyl)methanesulfonamide]",≤ 100 nM
7,"COc1ccc(Nc2nc(Nc3cc(C4CC4)nn3C)ncc2Cl)c(NS(C)(=O)=O)c1 [Example 9, N-(2-(5-chloro-2-(3-cyclopropyl-1-methyl-1H-pyrazol-5-ylamino)pyrimidin-4-ylamino)-5-methoxyphenyl)methanesulfonamide]",100 to 1000 nM
8,"CS(=O)(=O)Nc1ccccc1Nc1nc(Nc2cnn(CCCC#N)c2)ncc1F [Example 66, N-(2-((2-((1-(3-cyanopropyl)-1H-pyrazol-4-yl)amino)-5-fluoropyrimidin-4-yl)amino)phenyl)methanesulfonamide]",≤ 100 nM
9,"COc1ccc(Nc2nc(Nc3cc(C(C)(C)C)nn3C)ncc2Cl)c(NS(C)(=O)=O)c1 [Example 10, N-(2-(2-(3-tert-butyl-1-methyl-1H-pyrazol-5-ylamino)-5-chloropyrimidin-4-ylamino)-5-methoxyphenyl)methanesulfonamide]",1000 to 10000 nM
10,"CCS(=O)(=O)Nc1ccccc1Nc1nc(Nc2ccn(C)n2)ncc1Cl [Example 56, N-(2-((5-chloro-2-((1-methyl-1H-pyrazol-3-yl)amino)pyrimidin-4-yl)amino)phenyl)ethanesulfonamide]",100 to 1000 nM
11,"CCn1nc(Nc2ncc(Cl)c(Nc3ccccc3NS(C)(=O)=O)n2)cc1C [Example 59, N-(2-((5-chloro-2-((1-ethyl-5-methyl-1H-pyrazol-3-yl)amino)pyrimidin-4-yl)amino)phenyl)methanesulfonamide]",≤ 100 nM
12,"COc1ccc(Nc2nc(Nc3cc(C)n(C)n3)ncc2F)c(NS(C)(=O)=O)c1 [Example 47, N-(2-((2-((1,5-dimethyl-1H-pyrazol-3-yl)amino)-5-fluoropyrimidin-4-yl)amino)-5-methoxyphenyl)methanesulfonamide]",100 to 1000 nM
13,"CNC(=O)c1cc(Nc2ncc(Cl)c(Nc3ccccc3NS(C)(=O)=O)n2)nn1C [Example 97, 3-((5-chloro-4-((2-(methylsulfonamido)phenyl)amino)pyrimidin-2-yl)amino)-N,1-dimethyl-1H-pyrazole-5-carboxamide]",≤ 100 nM
14,"Cn1nc(Nc2ncc(Cl)c(Nc3ccccc3NS(C)(=O)=O)n2)cc1C(=O)NCCO [Example 101, 3-((5-chloro-4-((2-(methylsulfonamido)phenyl)amino)pyrimidin-2-yl)amino)-N-(2-hydroxyethyl)-1-methyl-1H-pyrazole-5-carboxamide]",≤ 100 nM
15,"Cn1cc(Nc2ncc(Cl)c(Nc3cccc(F)c3NS(C)(=O)=O)n2)cn1 [Example 89, N-(2-((5-chloro-2-((1-methyl-1H-pyrazol-4-yl)amino)pyrimidin-4-yl)amino)-6-fluorophenyl)methanesulfonamide]",≤ 100 nM
16,"Cc1cc(Nc2ncc(Br)c(Nc3ccccc3NS(C)(=O)=O)n2)nn1C [Example 51, N-(2-((5-bromo-2-((1,5-dimethyl-1H-pyrazol-3-yl)amino)pyrimidin-4-yl)amino)phenyl)methanesulfonamide]",≤ 100 nM
17,"COc1nn(CC(F)(F)F)cc1Nc1ncc(Cl)c(Nc2ccccc2NS(C)(=O)=O)n1 [Example 82, N-(2-((5-chloro-2-((3-methoxy-1-(2,2,2-trifluoroethyl)-1H-pyrazol-4-yl)amino)pyrimidin-4-yl)amino)phenyl)methanesulfonamide]",100 to 1000 nM
18,"CS(=O)(=O)Nc1ccccc1Nc1nc(Nc2cn[nH]c2)ncc1Cl [Example 25, N-(2-(2-(1H-pyrazol-4-ylamino)-5-chloropyrimidin-4-ylamino)phenyl)methanesulfonamide]",≤ 100 nM
19,"CC(C)n1ccc(Nc2ncc(Br)c(Nc3ccccc3NS(C)(=O)=O)n2)n1 [Example 49, N-(2-((5-bromo-2-((1-isopropyl-1H-pyrazol-3-yl)amino)pyrimidin-4-yl)amino)phenyl)methanesulfonamide]",≤ 100 nM
20,"COc1ccc(Nc2nc(Nc3ccn(C(C)C)n3)ncc2F)c(NS(C)(=O)=O)c1 [Example 48, N-(2-((5-fluoro-2-((1-isopropyl-1H-pyrazol-3-yl)amino)pyrimidin-4-yl)amino)-5-methoxyphenyl)methanesulfonamide]",100 to 1000 nM
21,"Cc1nn(CC(F)F)cc1Nc1ncc(F)c(Nc2ccccc2NS(C)(=O)=O)n1 [Example 72, N-(2-((2-((1-(2,2-difluoroethyl)-3-methyl-1H-pyrazol-4-yl)amino)-5-fluoropyrimidin-4-yl)amino)phenyl)methanesulfonamide]",100 to 1000 nM
22,"Cn1cc(Nc2ncc(F)c(Nc3cccc(F)c3NS(C)(=O)=O)n2)cn1 [Example 99, N-(2-fluoro-6-((5-fluoro-2-((1-methyl-1H-pyrazol-4-yl)amino)pyrimidin-4-yl)amino)phenyl)methanesulfonamide]",≤ 100 nM
23,"CS(=O)(=O)Nc1ccccc1Nc1nc(Nc2cnn(CCCC#N)c2)ncc1Cl [Example 65, N-(2-((5-chloro-2-((1-(3-cyanopropyl)-1H-pyrazol-4-yl)amino)pyrimidin-4-yl)amino)phenyl)methanesulfonamide]",≤ 100 nM
24,"CCNC(=O)c1cc(Nc2ncc(Cl)c(Nc3ccccc3NS(C)(=O)=O)n2)nn1C [Example 100, 3-((5-chloro-4-((2-(methylsulfonamido)phenyl)amino)pyrimidin-2-yl)amino)-N-ethyl-1-methyl-1H-pyrazole-5-carboxamide]",≤ 100 nM
25,"Cn1ccc(Nc2ncc(Cl)c(Nc3ccccc3NS(=O)(=O)C3CC3)n2)n1 [Example 53, N-(2-((5-chloro-2-((1-methyl-1H-pyrazol-3-yl)amino)pyrimidin-4-yl)amino)phenyl)cyclopropanesulfonamide]",100 to 1000 nM
26,"Cc1cc(Nc2ncc(Cl)c(Nc3cccc(F)c3NS(C)(=O)=O)n2)nn1C [Example 78, N-(2-((5-chloro-2-((1,5-dimethyl-1H-pyrazol-3-yl)amino)pyrimidin-4-yl)amino)-6-fluorophenyl)methanesulfonamide]",100 to 1000 nM
